Like-named read-outs stand apart in the source and are kept apart here.
What was measured:
[1] = target: PI3Kδ (Homo sapiens, UniProt O00329); assay: PI3Kδ kinase inhibition; format: biochemical
[2] = tested on: PI3Kα; assay: PI3K isoform selectivity, α versus δ; format: biochemical
[3] = tested on: PI3Kβ; assay: PI3K isoform selectivity, β versus δ; format: biochemical
[4] = Protocol: During dose escalation, patients received YY-20394 tablets q.d. at dosages of 20, 40, 80, 140 or 200 mg. The maximum tolerated dose (MTD), dose escalation phase and dose-limiting toxicity (DLT) as well as hematological toxicity classifications are described in Additional file 4. The primary endpoints were safety, tolerability and the MTD of YY-20394. Secondary endpoints were PK parameters and efficacy. Response criteria followed the revised International Research Working Group (IRWG) for non-Hodgkin lymphomas (NHL), and the International Working Group on Chronic Lymphocytic Leukemia (IWCLL) criteria for CLL [8]. Efficacy determinations were the objective response rate (ORR), disease control rate (DCR), complete remission (CR), partial remission (PR), stable disease (SD), progressive disease (PD) and progression-free survival (PFS).
The safety evaluation of YY-20394 included adverse events (AEs) and serious AEs (SAEs) by standard categorizations.
The maximum tolerated dose (MTD) was established during the dose escalation phase, based on dose-limiting toxicity (DLT) developments, which were defined as: death; grade IV hematological toxicity with a duration of 1 week; or non-hematological toxicities ≥ grade III. […] At the end of the tolerance test, the dose extension test was conducted, in which YY-20394 was administered for a period of 28 days per cycle until the disease progressed or toxicity developed beyond tolerance. Patients visited the clinic once a week during treatment cycle 1 and every 2 weeks during cycle 2 and once a month thereafter.

[5] = Pharmacokinetics in patients after multiple administrations; format: in vivo, human; settings: for AUC(0-inf) / AUC(0-t) / Cmax / Tmax / Vd/F / half-life / MRT last: human, serum, oral; for MRT last: read-out: MRT0→t
From the text: Additional File 6: Table S4. Mean pharmacokinetic parameters of patients after multiple administrations in each dosage group

[6] = tested on: basophil activation; assay: Inhibition of basophil activation in vitro; format: cell-based; settings: at the serum concentration produced by the 80 mg dose level
[7] = tested on: PI3Kγ
[8] = drug-related AE, n (%) of 25 evaluable patients

Chain of PI3Kδ (O00329 whole entry, canonical isoform): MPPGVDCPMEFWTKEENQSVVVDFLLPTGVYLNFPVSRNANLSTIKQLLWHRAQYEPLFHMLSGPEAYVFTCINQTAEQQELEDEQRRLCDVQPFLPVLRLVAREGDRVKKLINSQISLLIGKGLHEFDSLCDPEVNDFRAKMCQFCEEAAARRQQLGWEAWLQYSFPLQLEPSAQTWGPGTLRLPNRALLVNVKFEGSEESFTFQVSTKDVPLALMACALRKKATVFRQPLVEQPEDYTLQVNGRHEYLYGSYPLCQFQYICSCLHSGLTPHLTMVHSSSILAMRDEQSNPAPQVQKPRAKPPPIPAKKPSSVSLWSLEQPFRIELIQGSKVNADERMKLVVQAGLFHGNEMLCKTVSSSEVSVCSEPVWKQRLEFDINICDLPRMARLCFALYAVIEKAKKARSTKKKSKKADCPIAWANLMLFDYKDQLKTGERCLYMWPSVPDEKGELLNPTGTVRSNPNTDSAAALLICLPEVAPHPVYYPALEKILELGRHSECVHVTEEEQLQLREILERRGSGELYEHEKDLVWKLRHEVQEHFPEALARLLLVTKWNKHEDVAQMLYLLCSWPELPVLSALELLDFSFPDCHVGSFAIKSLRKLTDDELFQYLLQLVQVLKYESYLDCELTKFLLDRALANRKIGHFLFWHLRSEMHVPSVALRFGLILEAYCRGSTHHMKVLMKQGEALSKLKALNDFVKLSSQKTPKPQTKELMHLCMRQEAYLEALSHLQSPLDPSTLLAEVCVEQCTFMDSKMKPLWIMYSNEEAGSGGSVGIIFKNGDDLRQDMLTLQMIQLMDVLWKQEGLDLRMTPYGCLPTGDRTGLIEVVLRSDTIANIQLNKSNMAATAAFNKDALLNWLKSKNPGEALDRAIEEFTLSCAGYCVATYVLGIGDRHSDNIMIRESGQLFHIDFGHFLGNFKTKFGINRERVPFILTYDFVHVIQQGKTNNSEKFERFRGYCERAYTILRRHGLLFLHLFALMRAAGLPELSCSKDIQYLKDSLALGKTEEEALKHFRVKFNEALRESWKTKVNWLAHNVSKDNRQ
Chain of PI3Kδ (P27986 whole entry partner, canonical isoform): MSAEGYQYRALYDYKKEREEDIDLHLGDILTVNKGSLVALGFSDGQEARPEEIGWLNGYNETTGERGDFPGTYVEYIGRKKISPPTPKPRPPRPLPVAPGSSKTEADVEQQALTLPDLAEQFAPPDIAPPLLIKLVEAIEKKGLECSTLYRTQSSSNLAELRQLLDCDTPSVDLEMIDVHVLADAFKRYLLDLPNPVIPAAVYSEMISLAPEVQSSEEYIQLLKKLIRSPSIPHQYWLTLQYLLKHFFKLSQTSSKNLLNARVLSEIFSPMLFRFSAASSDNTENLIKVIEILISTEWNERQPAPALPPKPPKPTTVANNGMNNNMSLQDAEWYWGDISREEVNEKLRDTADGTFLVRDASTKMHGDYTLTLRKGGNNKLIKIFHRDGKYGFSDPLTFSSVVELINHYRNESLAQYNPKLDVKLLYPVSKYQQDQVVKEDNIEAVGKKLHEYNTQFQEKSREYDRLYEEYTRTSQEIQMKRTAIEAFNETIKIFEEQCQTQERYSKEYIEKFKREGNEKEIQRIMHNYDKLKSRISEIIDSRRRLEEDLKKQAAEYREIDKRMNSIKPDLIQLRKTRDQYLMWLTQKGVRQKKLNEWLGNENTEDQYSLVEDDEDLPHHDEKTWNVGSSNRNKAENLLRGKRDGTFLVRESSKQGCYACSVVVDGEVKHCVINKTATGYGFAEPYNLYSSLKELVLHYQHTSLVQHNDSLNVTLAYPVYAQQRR

## COc1ncc(-c2nc(N3CCOCC3)nc3c(CN4CCC(C(C)(C)O)CC4)cc(F)cc23)cc1NS(C)(=O)=O [YY-20394, N-[5-[6-fluoro-8-[[4-(1-hydroxy-1-methylethyl)-1-piperidinyl]methyl]-2-(4-morpholinyl)-4-quinazolinyl]-2-methoxy-3-pyridinyl]-methanesulfonamide]
[1]
  IC50: 4.6 nM
[2]
  Ratio of IC50 α/δ: 252
[3]
  Ratio of IC50 β/δ: 30
[4]; 20–200 mg daily
  maximum tolerated dose (MTD): not reached
[4]; [8]
  Upper respiratory tract infection, number of patients with grade I/II at > 5% incidence: 4 (16.0)
  Upper respiratory tract infection, number of patients with ≥ grade III: 1 (4.0)
[4]; human, in vivo
  Anemia, number of patients with grade I/II at > 5% incidence: 3 (12.0)
  Anemia, number of patients with ≥ grade III: 0
  Cough, number of patients with grade I/II at > 5% incidence: 2 (8.0)
  Cough, number of patients with ≥ grade III: 0
  Diarrhea, number of patients with grade I/II at > 5% incidence: 2 (8.0)
  Diarrhea, number of patients with ≥ grade III: 0
  Elevated alanine aminotransferase, number of patients with grade I/II at > 5% incidence: 3 (12.0)
  Elevated alanine aminotransferase, number of patients with ≥ grade III: 0
  Elevated aspartate aminotransferase, number of patients with grade I/II at > 5% incidence: 2 (8.0)
  Elevated aspartate aminotransferase, number of patients with ≥ grade III: 0
  Elevated bilirubin, number of patients with grade I/II at > 5% incidence: 2 (8.0)
  Elevated bilirubin, number of patients with ≥ grade III: 0
  Elevated serum alkaline phosphatase, number of patients with grade I/II at > 5% incidence: 3 (12.0)
  Elevated serum alkaline phosphatase, number of patients with ≥ grade III: 0
  Elevated serum lactate dehydrogenase, number of patients with grade I/II at > 5% incidence: 11 (44.0)
  Elevated serum lactate dehydrogenase, number of patients with ≥ grade III: 1 (4.0)
  Elevated serum α-hydroxybutyrate dehydrogenase, number of patients with grade I/II at > 5% incidence: 6 (24.0)
  Elevated serum α-hydroxybutyrate dehydrogenase, number of patients with ≥ grade III: 1 (4.0)
  Elevated γ-glutamyltransferase, number of patients with grade I/II at > 5% incidence: 2 (8.0)
  Elevated γ-glutamyltransferase, number of patients with ≥ grade III: 0
  Fatigue, number of patients with grade I/II at > 5% incidence: 2 (8.0)
  Fatigue, number of patients with ≥ grade III: 0
  Fever, number of patients with grade I/II at > 5% incidence: 2 (8.0)
  Fever, number of patients with ≥ grade III: 0
  Hyperbilirubinemia, number of patients with grade I/II at > 5% incidence: 3 (12.0)
  Hyperbilirubinemia, number of patients with ≥ grade III: 0
  Hyperuricemia, number of patients with grade I/II at > 5% incidence: 5 (20.0)
  Hyperuricemia, number of patients with ≥ grade III: 3 (12.0)
  Leukocytosis, number of patients with grade I/II at > 5% incidence: 2 (8.0)
  Leukocytosis, number of patients with ≥ grade III: 0
  Leukopenia, number of patients with grade I/II at > 5% incidence: 11 (44.0)
  Leukopenia, number of patients with ≥ grade III: 2 (8.0)
  Lymphocythemia, number of patients with grade I/II at > 5% incidence: 3 (12.0)
  Lymphocythemia, number of patients with ≥ grade III: 2 (8.0)
  Maculopapule, number of patients with grade I/II at > 5% incidence: 2 (8.0)
  Maculopapule, number of patients with ≥ grade III: 0
  Neutropenia, number of patients with grade I/II at > 5% incidence: 17 (68.0)
  Neutropenia, number of patients with ≥ grade III: 11 (44.0)
  Oropharyngeal pain, number of patients with grade I/II at > 5% incidence: 2 (8.0)
  Oropharyngeal pain, number of patients with ≥ grade III: 0
  Pneumonia, number of patients with grade I/II at > 5% incidence: 4 (16.0)
  Pneumonia, number of patients with ≥ grade III: 4 (16.0)
  Pneumonitis, number of patients with grade I/II at > 5% incidence: 3 (12.0)
  Pneumonitis, number of patients with ≥ grade III: 2 (8.0)
  Proteinuria, number of patients with grade I/II at > 5% incidence: 4 (16.0)
  Proteinuria, number of patients with ≥ grade III: 0
  Thrombocytopenia, number of patients with grade I/II at > 5% incidence: 5 (20.0)
  Thrombocytopenia, number of patients with ≥ grade III: 1 (4.0)
  Weight gain, number of patients with grade I/II at > 5% incidence: 2 (8.0)
  Weight gain, number of patients with ≥ grade III: 1 (4.0)
  Weight loss, number of patients with grade I/II at > 5% incidence: 3 (12.0)
  Weight loss, number of patients with ≥ grade III: 0
  dose-limiting toxicity (DLT): no patients experienced DLT
  drug-related AE elevated lactate dehydrogenase: 44.0%
  drug-related AE elevated α-hydroxybutyrate dehydrogenase: 24.0%
  drug-related AE hyperuricemia: 20.0%
  drug-related AE leukopenia: 44.0%
  drug-related AE neutropenia: 68.0%
  drug-related AE thrombocytopenia: 20.0%
  drug-related AE ≥ grade III hyperuricemia: 12.0%
  drug-related AE ≥ grade III leukopenia: 8.0%
  drug-related AE ≥ grade III lymphocythemia: 8.0%
  drug-related AE ≥ grade III neutropenia: 44.0%
  drug-related AE ≥ grade III pneumonia: 16.0%
  drug-related AE ≥ grade III pneumonitis: 8.0%
  grade IV hyperuricemia: 3 cases
  grade IV neutropenia: 4
  grade V AEs: no grade V AEs occurred
  incidence of diarrhea, colitis, and hepatotoxicities: very low
  number of ≥ grade III AEs: 32
  patients who experienced SAEs: 52.0%
  patients who experienced drug-related AEs (so in the source): 36.0%
  patients with ≥ 1 AE: 25 patients
[5]; 20 mg, mean
  CL/F: 16.3 L/h
  Cmin: 28.7 ng/mL
  Css: 51.0 ng/mL
  AUC(0-inf): 4010 ng·h/mL
  AUC(0-t): 1220 ng·h/mL
  Cmax: 94.6 ng/mL
  Tmax: 4 h
  Vd/F: 930 L
  half-life: 39.5 h
  MRT last: 65.7 h
[5]; 40 mg, mean ± SD
  CL/F: 13.4 ± 3.7 L/h
  Cmin: 73.0 ± 32.5 ng/mL
  Css: 132.7 ± 43.0 ng/mL
  AUC(0-inf): 5500 ng·h/mL
  AUC(0-t): 3190 ng·h/mL
  Cmax: 208 ± 58.3 ng/mL
  Tmax: 2.7 ± 1.2 h
  Vd/F: 392 ± 228 L
  half-life: 19.7 ± 7.2 h
  MRT last: 28.1 ± 10.5 h
[5]; 80 mg, mean ± SD
  CL/F: 11.1 ± 3.1 L/h
  Cmin: 180.5 ± 74.5 ng/mL
  Css: 325.7 ± 97.8 ng/mL
  AUC(0-inf): 16600 ng·h/mL
  AUC(0-t): 7820 ng·h/mL
  Cmax: 529 ± 170 ng/mL
  Tmax: 2.4 ± 1.7 h
  Vd/F: 388 ± 392 L
  half-life: 25.3 ± 25.5 h
  MRT last: 36.4 ± 37.6 h
[5]; 140 mg, mean ± SD
  CL/F: 9.1 ± 0.6 L/h
  Cmin: 359.6 ± 31.5 ng/mL
  Css: 642.3 ± 40.2 ng/mL
  AUC(0-inf): 24300 ng·h/mL
  AUC(0-t): 15400 ng·h/mL
  Cmax: 1190 ng/mL
  Tmax: 3.7 ± 2.5 h
  Vd/F: 215 ± 10 L
  half-life: 16.4 ± 0.3 h
  MRT last: 23.4 ± 1.5 h
[5]; 200 mg, mean ± SD
  CL/F: 9.4 ± 2.2 L/h
  Cmin: 472.4 ± 71.6 ng/mL
  Css: 918.6 ± 201.7 ng/mL
  AUC(0-inf): 36300 ng·h/mL
  AUC(0-t): 22000 ng·h/mL
  Cmax: 1610 ng/mL
  Tmax: 2 ± 1.5 h
  Vd/F: 239 ± 110 L
  half-life: 17.5 ± 6.3 h
  MRT last: 25.3 ± 8.8 h
[5]; 20 to 200 mg
  exposure (Cmax, AUC0-t, AUC0-∞) versus dose: increased with dosage
[6]
  inhibition of basophil activation in vitro: 90%
[7]
  Ratio of IC50 γ/δ: 1125
[7]; PI3Kδ versus PI3Kγ, compared with idelalisib
  kinase inhibition profile more PI3Kδ-selective: ~2 orders of magnitude
